Tests used:
[1] = test system: splenic B cell and T cell populations; assay: Wild type mouse study: spleen immunophenotyping by flow cytometry; type: in vivo, C57BL/6 mice
[2] = test system: circulating immunoglobulins; assay: Wild type mouse study: circulating immunoglobulin profile by ELISA; type: in vivo, C57BL/6 mice; settings: clozapine 5 and 10 mg/kg, haloperidol 1 mg/kg, IP 21 days; FIG. 24
[3] = test system: bone marrow B cell subsets; assay: Wild type mouse study: bone marrow B cell immunophenotyping by flow cytometry; type: in vivo, C57BL/6 mice; settings: 1 mg/kg IP, 21 days
[4] = no clear dose-dependent relationship; not significant beyond 30 days; cited from earlier work
IgE = settings: cited from earlier work
CD20 = molecular target: T1, CD20 (Homo sapiens, UniProt P11836); settings: cited from earlier work
T1 construct: host or cells: patients' own B cells
T1 sequence (P11836 1-297): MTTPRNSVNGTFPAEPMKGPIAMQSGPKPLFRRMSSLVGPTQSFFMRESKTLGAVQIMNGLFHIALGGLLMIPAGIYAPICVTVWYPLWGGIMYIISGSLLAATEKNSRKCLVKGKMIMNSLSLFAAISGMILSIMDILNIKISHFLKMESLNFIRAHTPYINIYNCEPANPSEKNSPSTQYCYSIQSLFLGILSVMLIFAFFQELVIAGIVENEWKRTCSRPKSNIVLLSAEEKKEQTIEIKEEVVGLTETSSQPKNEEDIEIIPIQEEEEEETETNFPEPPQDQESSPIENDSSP

Chain of IgE (P01854 1-425 limits assumed): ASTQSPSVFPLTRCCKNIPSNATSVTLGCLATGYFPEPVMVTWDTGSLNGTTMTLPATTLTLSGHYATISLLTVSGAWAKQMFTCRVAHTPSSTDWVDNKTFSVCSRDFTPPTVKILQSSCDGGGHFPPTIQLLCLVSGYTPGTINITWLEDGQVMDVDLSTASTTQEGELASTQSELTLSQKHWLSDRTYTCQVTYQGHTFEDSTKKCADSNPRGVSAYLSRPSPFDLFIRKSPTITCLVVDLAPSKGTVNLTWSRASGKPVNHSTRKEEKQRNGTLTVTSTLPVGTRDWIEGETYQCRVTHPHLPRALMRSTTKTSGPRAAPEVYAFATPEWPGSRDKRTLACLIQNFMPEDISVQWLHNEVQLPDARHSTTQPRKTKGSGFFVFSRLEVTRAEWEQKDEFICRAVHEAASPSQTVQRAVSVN

Molecule: O=C(CCCN1CCC(O)(c2ccc(Cl)cc2)CC1)c1ccc(F)cc1 [haloperidol]
- activated T cells (B220+TCR-beta+) in spleen vs control ([1]; clozapine 2.5-10 mg/kg, haloperidol 1 mg/kg, IP 21 days, FIG. 21): modestly apparent
- impact on B cell subpopulations ([1]; comparator, 1 mg/kg IP, 21 days): not observed
- circulating IgA levels compared to control [2]: not observed
- early developing B cell subsets in bone marrow (overall B, pre-pro B, pro-B) ([3]; FIG. 18): no significant effect
- effect on long-lived plasma cells in the bone marrow ([3]; FIG. 20): no effect

Molecule: Cc1cc2c(s1)Nc1ccccc1N=C2N1CCN(C)CC1 [olanzapine]
- risk of pneumonia requiring hospitalization [4]: modestly increased risk

Molecule: OCCOCCN1CCN(C2=Nc3ccccc3Sc3ccccc32)CC1 [quetiapine]
- risk of pneumonia requiring hospitalization [4]: modestly increased risk

Molecule: Cc1nc2n(c(=O)c1CCN1CCC(c3noc4cc(F)ccc34)CC1)CCCC2 [risperidone]
- risk of pneumonia requiring hospitalization [4]: modestly increased risk

Molecule: omalizumab: humanised monoclonal anti-IgE antibody
- treatment of refractory chronic spontaneous urticaria (IgE; 2 phase II and 4 phase III trials (Chang et al., 2015)): efficacious and safe
- clinical efficacy in allergic rhinitis (IgE; Holgate et al., 2005, Tsabouri et al., 2014): clinically effective
- effect in refractory/relapsing Churg-Strauss syndrome (IgE; Jachiet et al., 2016): corticosteroid-sparing effect
- efficacy in atopic individuals with coexisting eye disease (IgE; Kopp et al., 2009): has shown efficacy
- burden of asthma symptoms (IgE; inner city children and young adults (Busse et al., 2011)): significant reduction
- clinical outcome in eosinophilic oesophagitis (IgE; pilot study (Loizou et al., 2015)): clinical improvement in a proportion of patients

Molecule: rituximab: anti-CD-20 antibody used for B cell depletion
- clinical outcome in Churg-Strauss syndrome (CD20; Mohammad et al., 2016): clinically effective in inducing remission or partial responses
- clinical outcome in atopic dermatitis (CD20; Simon et al., 2008): substantial clinical improvement
- reduction of B cells in the skin, atopic dermatitis (CD20; Simon et al., 2008): ~50%
- effect on IgE levels (CD20; van Vollenhoven et al., 2013): modest
